Assay results from patent US12495798B2, “Nicotinamide compound and herbicidal composition comprising compound” (KOREA RESEARCH INSTITUTE OF CHEMICAL TECHNOLOGY, priority 2019, dated 2025).

Assays:
Assay in all cases: Herbicidal activity test against upland field weeds (foliar treatment test)
Format in all cases: in vivo
bindweed = test system: bindweed; design: key to Foliar treatment herbicidal activity, Bindweed: 0 (no control); 100 (complete control); settings: 50 g ai/ha, scale 0-100
Method: (§1) Experimental Example 1: Herbicidal Activity Test Against Upland Field Weeds (Foliar Treatment Test) Foliar treatment was performed as follows: After filling a square plastic pot having a surface area of 350 cm^2 with horticultural soil, seeds (10˜15 grains) or rootstocks (2 pieces) of 5 kinds of grassy weeds of sorghum, barnyard grass, quack grass, crabgrass, fall panicum, and 5 kinds of broadleaf weeds of black nightshade, indian jointvetch, velvetleaf, cocklebur, bindweed, which had been stored in a low temperature (6° C.), were sown. After growing for a certain period in greenhouse conditions (average temperature 30±5° C., light/dark=14/10 hours), test compound solutions were made by diluting with a preparation solution (including 50% acetone, 0.1% Tween-20) so that the final treatment amount of the test compounds was 50 or 75 g a.i./ha. The prepared test compound solution was used for treating foliage by hand-spraying 14 mL per pot in a fume hood. After the treatment, it was managed under the same greenhouse conditions as above, and after 14 days (after 21 days if necessary), the external symptoms and efficacy were investigated according to the scale of 0 (no control) to 100 (complete control). The results of Table 7 were obtained by evaluating weed control value to the untreated control by conducting visual assessment.

cocklebur = test system: cocklebur; design: key to Foliar treatment herbicidal activity, Cocklebur: 0 (no control); 100 (complete control); settings: 50 g ai/ha, scale 0-100; for pest or weed control at 50 g/ha: Xanthium strumarium
Method: as §1

fall panicum = test system: fall panicum; design: key to Foliar treatment herbicidal activity, Fall panicum: 0 (no control); 100 (complete control); settings: 50 g ai/ha, scale 0-100; for pest or weed control at 50 g/ha: Panicum dichotomiflorum
Method: as §1

sorghum = test system: sorghum; design: key to Foliar treatment herbicidal activity, Sorghum: 0 (no control); 100 (complete control); settings: 50 g ai/ha, scale 0-100; for plant injury at 50 g/ha: Sorghum
Method: as §1

indian jointvetch = test system: indian jointvetch; design: key to Foliar treatment herbicidal activity, Indian jointvetch: 0 (no control); 100 (complete control); settings: 50 g ai/ha, scale 0-100
Method: as §1

crabgrass = test system: crabgrass; design: key to Foliar treatment herbicidal activity, Crabgrass: 0 (no control); 100 (complete control); settings: 50 g ai/ha, scale 0-100; for pest or weed control at 50 g/ha: Digitaria sanguinalis
Method: as §1

black nightshade = test system: black nightshade; design: key to Foliar treatment herbicidal activity, black nightshade: 0 (no control); 100 (complete control); settings: 50 g ai/ha, scale 0-100; for pest or weed control at 50 g/ha: Solanum nigrum
Method: as §1

barnyard grass = test system: barnyard grass; design: key to Foliar treatment herbicidal activity, barnyard grass: 0 (no control); 100 (complete control); settings: 50 g ai/ha, scale 0-100; for pest or weed control at 50 g/ha: Echinochloa crus-galli
Method: as §1

velvetleaf = test system: velvetleaf; design: key to Foliar treatment herbicidal activity, velvet leaf: 0 (no control); 100 (complete control); settings: 50 g ai/ha; for pest or weed control at 50 g/ha: Abutilon theophrasti, scale 0-100, read-out: Foliar treatment herbicidal activity, velvet leaf; for Foliar treatment herbicidal activity, velvet leaf: scale 0-100
Method: as §1

quack grass = test system: quack grass; design: key to Foliar treatment herbicidal activity, quack grass: 0 (no control); 100 (complete control); settings: 50 g ai/ha, scale 0-100
Method: as §1

| SMILES | pest or weed control at 50 g/ha (bindweed) | pest or weed control at 50 g/ha (cocklebur) | pest or weed control at 50 g/ha (fall panicum) | Foliar treatment herbicidal activity, Sorghum (sorghum) | pest or weed control at 50 g/ha (indian jointvetch) | pest or weed control at 50 g/ha (crabgrass) | Foliar treatment herbicidal activity, black nightshade (black nightshade) | Foliar treatment herbicidal activity, barnyard grass (barnyard grass) | pest or weed control at 50 g/ha (velvetleaf) | Foliar treatment herbicidal activity, quack grass (quack grass) | Foliar treatment herbicidal activity, Bindweed (bindweed) | Foliar treatment herbicidal activity, Fall panicum (fall panicum) | Foliar treatment herbicidal activity, Indian jointvetch (indian jointvetch) | Foliar treatment herbicidal activity, Crabgrass (crabgrass) | pest or weed control at 50 g/ha (black nightshade) | Foliar treatment herbicidal activity, velvet leaf (velvetleaf) | pest or weed control at 50 g/ha (barnyard grass) | plant injury at 50 g/ha (sorghum) | Foliar treatment herbicidal activity, Cocklebur (cocklebur) |
| --- | --- | --- | --- | --- | --- | --- | --- | --- | --- | --- | --- | --- | --- | --- | --- | --- | --- | --- | --- |
| Cn1nnnc1NC(=O)c1ccc(C(F)(F)F)nc1COCc1nnn(C(F)F)n1 [Compound No. 2-92, 2-(((2-(difluoromethyl)-2H-tetrazol-5-yl)methoxy)methyl)-N-(1-methyl-1H-tetrazol-5-yl)-6-(trifluoromethyl)nicotinamide] | 70% | 70% | 40% | 0 | 70% | 20% | 100 | 0 | 80% | 0 | – | – | – | – | – | – | – | – | – |
| Cn1nnnc1COc1nc(C(F)(F)F)cc(Cl)c1C(=O)Nc1nnnn1C [Compound No. 1-13, 4-chloro-N-(1-methyl-1H-tetrazol-5-yl)-2-((1-methyl-1H-tetrazol-5-yl)methoxy)-6-(trifluoromethyl)nicotinamide] | – | 20% | – | 0 | – | – | – | 0 | – | 0 | 0 | 0 | 0 | 0 | 60% | 0 | – | – | – |
| Cn1nnnc1NC(=O)c1ccc(C(F)(F)F)nc1COc1nnnn1C [Compound No. 1-115, N-(1-methyl-1H-tetrazol-5-yl)-2-(((1-methyl-1H-tetrazol-5-yl)oxy)methyl)-6-(trifluoromethyl)nicotinamide] | 80% | 80% | – | 0 | 40% | – | – | – | 40% | 0 | – | 0 | – | 0 | 95% | – | 30% | – | – |
| Cn1nnnc1NC(=O)c1ccc(C(F)(F)F)nc1COCc1nc(OCC(F)(F)F)n(C)n1 [Compound No. 2-130, N-(1-methyl-1H-tetrazol-5-yl)-2-(((1-methyl-5-(2,2,2-trifluoroethoxy)-1H-1,2,4-triazol-3-yl)methoxy)methyl)-6-(trifluoromethyl)nicotinamide] | 70% | 60% | 70% | – | 60% | 90% | – | – | 50% | 0 | – | – | – | – | 98% | – | 95% | 30% | – |
| Cn1nnc(CNc2nc(C(F)(F)F)ccc2C(=O)Nc2nnnn2C)n1 [Compound No. 2-32, N-(1-methyl-1H-tetrazol-5-yl)-2-(((2-methyl-2H-tetrazol-5-yl)methyl)amino)-6-(trifluoromethyl)nicotinamide] | – | – | – | 0 | – | – | – | 0 | – | 0 | 0 | 0 | 0 | 0 | 40% | 0 | – | – | 0 |
| CN(Cc1nnn(C)n1)Cc1nc(C(F)(F)F)ccc1C(=O)Nc1nnnn1C [Compound No. 2-93, 2-((methyl((2-methyl-2H-tetrazol-5-yl)methyl)amino)methyl)-N-(1-methyl-1H-tetrazol-5-yl)-6-(trifluoromethyl)nicotinamide] | 50% | 95% | 30% | – | 70% | 40% | 100 | – | 80% | 0 | – | – | – | – | – | – | 20% | 20% | – |
| CN(C)c1nc(COCc2nc(C(F)(F)F)ccc2C(=O)Nc2nnnn2C)nn1C [Compound No. 2-133, 2-(((5-(dimethylamino)-1-methyl-1H-1,2,4-triazol-3-yl)methoxy)methyl)-N-(1-methyl-1H-tetrazol-5-yl)-6-(trifluoromethyl)nicotinamide] | 90% | 95% | 80% | – | 95% | 98% | 100 | – | 80% | 0 | – | – | – | – | – | – | 90% | 20% | – |
| Cn1nnnc1COc1nc(Cl)ccc1C(=O)Nc1nnnn1C [Compound No. 1-20, 6-chloro-N-(1-methyl-1H-tetrazol-5-yl)-2-((1-methyl-1H-tetrazol-5-yl)methoxy)nicotinamide] | – | 20% | – | 0 | – | – | – | 0 | – | 0 | 0 | 0 | 0 | 0 | 50% | 0 | – | – | – |
| CCN(Cc1nnn(C)n1)Cc1nc(C(F)(F)F)ccc1C(=O)Nc1nnnn1C [Compound No. 2-94, 2-((ethyl((2-methyl-2H-tetrazol-5-yl)methyl)amino)methyl)-N-(1-methyl-1H-tetrazol-5-yl)-6-(trifluoromethyl)nicotinamide] | 30% | 60% | – | 0 | 60% | – | 100 | 0 | 60% | 0 | – | 0 | – | 0 | – | – | – | – | – |
| Cn1nnnc1COc1nc(C(F)(F)F)ccc1C(=O)Nc1nnnn1C(F)F [Compound No. 1-4, N-(1-(difluoromethyl)-1H-tetrazol-5-yl)-2-((1-methyl-1H-tetrazol-5-yl)methoxy)-6-(trifluoromethyl)nicotinamide] | 20% | 60% | – | 0 | 20% | – | – | 0 | 20% | 0 | – | 0 | – | 0 | 80% | – | – | – | – |
| Cn1nnnc1NC(=O)c1ccc(C(F)(F)F)nc1COCc1nnnn1C(F)F [Compound No. 1-85, 2-(((1-(difluoromethyl)-1H-tetrazol-5-yl)methoxy)methyl)-N-(1-methyl-1H-tetrazol-5-yl)-6-(trifluoromethyl)nicotinamide] | 40% | 90% | 40% | 0 | 40% | – | – | 0 | 20% | 0 | – | – | – | 0 | – | – | – | – | – |
